{"source": "patent US20190388381A1", "about": "“METHODS OF INHIBITING CISD PROTEIN-PLP COMPLEX FORMATION” (priority 2018, published 2019)", "key": {"mitoNEET [1]": {"target": "T1, mitoNEET (Homo sapiens, UniProt Q9NZ45)", "T1 sequence (Q9NZ45 33-108 limits assumed)": "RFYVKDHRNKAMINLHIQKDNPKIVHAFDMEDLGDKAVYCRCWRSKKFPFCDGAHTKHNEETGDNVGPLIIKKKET", "test": "Thermal shift analysis (SYPRO Orange) of mitoNEET", "type": "binding", "conditions": "changing concentrations of nucleotide"}, "mitoNEET [2]": {"target": "T1, mitoNEET", "test": "Competitive spectrophotometric assay of mitoNEET⋅PLP complex formation", "type": "biochemical", "conditions": "for Effect on mitoNEET⋅PLP complex formation: signal at λ=380 nm (unbound PLP) with increasing compound concentration"}, "PLP⋅mitoNEET complex": {"target": "T2, PLP⋅mitoNEET complex (Homo sapiens, UniProt Q9NZ45)", "T2 sequence (Q9NZ45 33-108 limits assumed)": "T1 sequence (Q9NZ45 33-108 limits assumed)", "test": "Reaction of candidate amino acid substrates with the PLP⋅mitoNEET complex, followed by spectrophotometry", "type": "biochemical", "conditions": "internal aldimine at λ=410 nm, signal at λ=330 nm, over 5000 sec", "text": "After PLP binding to the protein, the next step in many PLP-catalyzed enzymatic reactions is the formation of an external aldimine with one of several amino acid substrate such as cysteine, serine, alanine, or aspartate. Subsequently, an amazing diversity of chemistry can occur using this versatile coenzyme including transamination, racemization, and α,β-elimination. L-cysteine was selected as a first candidate substrate considering the previously shown reactivity of mitoNEET cysteine residues in the formation of mixed disulfide bonds. L-cysteine (0.5 mM) was added to the PLP⋅mitoNEET complex and the reaction was followed by spectrophotometry over 5000 sec."}, "mitoNEET [3]": {"target": "T3, mitoNEET (Homo sapiens, UniProt Q9NZ45)", "T3 construct": "Considering the presence of ten lysine residues in the soluble portion of mitoNEET", "T3 sequence (Q9NZ45 32-108 limits assumed)": "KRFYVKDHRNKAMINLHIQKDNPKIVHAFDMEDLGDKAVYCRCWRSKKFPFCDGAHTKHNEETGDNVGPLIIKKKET", "test": "Proteomic analysis of mitoNEET lysine residues modified by PLP", "type": "biochemical", "conditions": "2.0 molar equivalents of PLP, 20 minutes, PBS pH 7.5", "experimental": "Considering the presence of ten lysine residues in the soluble portion of mitoNEET, non-specific binding of PLP was a concern (PDB code 3EW0). Therefore, mitoNEET was treated with 2.0 molar equivalents of PLP over 20 minutes in phosphate buffered saline (PBS) at pH 7.5 and the reacted protein was analyzed by proteomics. […] Next, the product(s) were degraded by tryptic digest, separated by liquid chromatography, analyzed by tandem mass spectrometry, and the data deconvoluted by proteomic analysis (courtesy of Indiana University Medical School Proteomics Core)."}, "mitoNEET [4]": {"target": "T1, mitoNEET", "test": "Spectroscopic kinetics of modification of mitoNEET by PLP", "type": "biochemical", "conditions": "in contrast to PLP; data not shown", "text": "The initial discovery was made that CISD proteins bind PLP at a specific lysine residue that is in close proximity to the [2Fe-2S] cluster. PLP modifies the active site lysine residue of PLP-dependent enzymes forming the internal aldimine. In mitoNEET, PLP selectively modifies Lys55. While Lys55 was hypothesized to play a role in the reduction potential and stability of the [2Fe-2S] cluster in mitoNEET, its role as the binding site of PLP is novel to this work. MitoNEET was previously not known or classified as a PLP-dependent enzyme. Referring to FIG. 2, the formation of the mitoNEET⋅PLP and NAF-1⋅PLP complexes can be followed spectroscopically by the accumulation of a signal at λ=435 nm which is consistent with the ketoenamine tautomer and the attenuation of the signal at λ=380 nm which signifies the free PLP molecule. Concurrently with the increase of signal at λ=435 nm, an increase at λ=280 nm is also observed, but the chemical species contributing to this signal is currently unknown. In contrast to PLP, no reactivity of mitoNEET towards the non-phosphorylated pyridoxal (data not shown) was observed. […] An analogous lysine (Lys78) on NAF-1 is the analogous site for that protein."}}, "note": "“Also recorded” adds a separate entry of the source.", "data": [{"smiles": "Nc1ncnc2c1ncn2[C@@H]1O[C@H](COP(=O)(O)OP(=O)(O)O)[C@@H](O)[C@H]1O", "note": "[ADP, adenosine diphosphate]", "values": [{"measurement": "Effect on mitoNEET thermal stability", "setting": "mitoNEET [1]", "value": "do not significantly affect the thermal shift profile"}]}, {"smiles": "Nc1ncnc2c1ncn2[C@@H]1O[C@H](COP(=O)(O)O)[C@@H](O)[C@H]1O", "note": "[AMP, adenosine monophosphate]", "values": [{"measurement": "Effect on mitoNEET⋅PLP complex formation", "setting": "mitoNEET [2]", "value": "no binding at Lys55; also recorded: does not correspond with an increase in the signal at λ=380 nm"}, {"measurement": "Effect on mitoNEET thermal stability", "setting": "mitoNEET [1]", "value": "do not significantly affect the thermal shift profile"}]}, {"smiles": "N[C@H](CS)C(=O)O", "note": "[D-cysteine]", "values": [{"measurement": "Reaction with the PLP⋅mitoNEET complex", "setting": "PLP⋅mitoNEET complex", "value": "also reacts with the PLP⋅mitoNEET complex (albeit at a slower rate)"}]}, {"smiles": "N[C@@H](CS)C(=O)O", "note": "[L-cysteine]", "values": [{"measurement": "Reaction with the PLP⋅mitoNEET complex", "setting": "PLP⋅mitoNEET complex", "value": "degradation of the internal aldimine"}]}, {"smiles": "N[C@@H](COP(=O)(O)O)C(=O)O", "note": "[L-phosphoserine]", "values": [{"measurement": "Reaction with the PLP⋅mitoNEET complex", "setting": "PLP⋅mitoNEET complex", "value": "did not react"}]}, {"smiles": "N[C@@H](CO)C(=O)O", "note": "[L-serine]", "values": [{"measurement": "Reaction with the PLP⋅mitoNEET complex", "setting": "PLP⋅mitoNEET complex", "value": "did not react"}]}, {"smiles": "Cc1ncc(COP(=O)(O)O)c(C=O)c1O", "note": "[PLP, pyridoxal-5′-phosphate]", "values": [{"measurement": "Percent Modified, lysine residue position 55", "setting": "mitoNEET [3]", "value": 48.1, "unit": "%"}, {"measurement": "Percent Modified, lysine residue position 68", "setting": "mitoNEET [3]", "value": 7.6, "unit": "%"}, {"measurement": "Percent Modified, lysine residue position 79", "setting": "mitoNEET [3]", "value": 6.1, "unit": "%"}, {"measurement": "Percent Modified, lysine residue position 89", "setting": "mitoNEET [3]", "value": 2.5, "unit": "%"}, {"measurement": "Percent Modified, lysine residue position 104", "setting": "mitoNEET [3]", "value": 1.5, "unit": "%"}]}, {"smiles": "NS(=O)(=O)c1cc(C(=O)O)c(NCc2ccco2)cc1Cl", "note": "[furosemide]", "values": [{"measurement": "Formation of mitoNEET⋅PLP complex after pre-treatment", "setting": "mitoNEET [2]; signal at 435 nm, pre-treatment with compound", "value": "lack of formation of mitoNEET⋅PLP complex"}, {"measurement": "Effect on mitoNEET⋅PLP complex formation", "setting": "mitoNEET [2]", "value": "competitive binding; also recorded: prohibits the mitoNEET⋅PLP complex formation"}, {"measurement": "Effect on mitoNEET⋅PLP complex formation", "setting": "mitoNEET [2]; listed as Furosemide", "value": "block the formation of the mitoNEET⋅PLP complex in a concentration dependent manner"}]}, {"smiles": "Cc1ncc(CO)c(C=O)c1O", "note": "[pyridoxal]", "values": [{"measurement": "Reactivity of mitoNEET towards compound", "setting": "mitoNEET [4]", "value": "no reactivity"}]}]}
